Assay results as given in patent publication US20110287442A1, “Tumor Antigen Protein, Gene, or Peptides from Topoisimerase 2 Alpha” (CATHOLIC UNIVERSITY INDUSTRY ACADEMIC COOPERATION FOUNDATION, priority 2010, published 2011).

Tested on: splenocytes from the mice vaccinated with Top2αC RNA/DCs
Test: IFN-γ ELISA of splenocytes stimulated with Top2αC-derived peptides
Assay type: cell-based, mouse
Settings: 1 μg/ml peptides, three days, compared to other peptides
Description: The 5 Top2αC-derived peptides binding to MHC class I molecules (H-2 Kb) with a high score were selected by BIMAS and […], and in order to determine T lymphocyte epitopes of Top2αC, splenocytes from the mice vaccinated with Top2αC RNA/DCs were stimulated with Top2αC-derived peptides, and then IFN-γ production was determined by ELISA.
Splenocytes (2×10^5 cells/200 μl) of a mouse vaccinated with Top2αC RNA/DCs were incubated with 1 μg/ml peptides in a round-bottomed 96-well plate. Three days later, the plate was centrifuged and 100 μl of the supernatant was removed from each well. The level of IFN-γ was determined by ELISA (eBioscience, San Diego, USA).

“DSDEDFSGL [p1327, Top2αC-derived peptide, location 1327-1355 as printed]” was tested, and the IFN-γ production was “higher level”.
